From patent publication US20060104981A1, “Prophylactic/therapeutic agent for cancer” (priority 2002, published 2006)

Tests used:
Assay type in all cases: cell-based
[1] = system: colon cell line HCT116; assay: Apoptosis (caspase 3/7 activity, Caspase Glo-3/7 assay) after siRNA transfection; settings: day 3 after transfection
Method: (§1) RNA Duplexes for the base sequence represented by SEQ ID NO: 3 (hereinafter briefly referred to as siRNA) were designed (SEQ ID NO: 11 and SEQ ID NO: 12) and provided for the transfection experiment using the synthetic duplexes (Qiagen, Inc.). For control siRNAs, commercially available Control (non-silencing) siRNAs (SEQ ID NO: 13 and SEQ ID NO: 14) (manufactured by Qiagen, Inc.) were used.
(§2) Meanwhile, 1×10^3 cells were seeded on a 96-well plate (manufactured by Falcon Co., Ltd.) to assess the effect on apoptosis. Forty-eight hours later, siRNA or control siRNA to EZH2 was transfected using Lipofectamine 2000 (manufactured by Invitrogen Corp.) as described above. On day 3 after the siRNA transfection, the caspase 3/7 activity as an indicator of apoptosis was compared by the Caspase Glo-3/7 assay (manufactured by Promega Corp.).

[2] = system: lung cancer cell line NCI-H1299; assay: as above; settings: day 3 after transfection
Method: as §1, §2

[3] = system: EZH2 (RNA) in colon cell line HCT116; assay: EZH2 (RNA) expression by quantitative PCR after siRNA transfection; settings: 36 hours after transfection, siRNA 45 nM
From the text: as §1
(§3) Colon cell line HCT116 (purchased from ATCC) and lung cancer cell line NCI-H1299 (purchased from ATCC) were used as the test cells used for the following test. Forty-eight hours before transfection of siRNAs, 5×10^5 cells were plated on a 24-well plate (manufactured by Falcon Co., Ltd.). In transfection of these siRNAs, Lipofectamine 2000 (manufactured by Invitrogen Corp.) was used in accordance with its protocol. The final concentration of siRNAs was set at 45 nM. RNA was extracted 36 hours after the transfection, following the protocol of RNeasy Mini Kit (manufactured by Qiagen, Inc.) and cDNA was prepared using TaqMan Reverse Transcription Reagents (manufactured by Applied Biosystems, Inc.). Quantitative PCR was performed on ABI PRISM™ 7900HT Sequence Detector (manufactured by Applied Biosystems, Inc.), using two primers (SEQ ID NO: 6 and SEQ ID NO: 7) and a probe (SEQ ID NO: 8), as in EXAMPLE 4.

[4] = system: EZH2 (RNA) in lung cancer cell line NCI-H1299; assay: as above; settings: 36 hours after transfection, siRNA 45 nM
From the text: as §1, §3

With “siRNA to EZH2: RNA duplexes for the base sequence of SEQ ID NO: 3; antisense strand SEQ ID NO: 11, sense strand SEQ ID NO: 12 (antisense AAGUUGAACAGAAAGCUGCTT; sense GCAGCUUUCUGUUCAACUUTT; RNA duplexes, chemistry of the tt overhangs not given here)” the “apoptosis as compared to the control (100%)” value [1] was 185%, the “apoptosis as compared to the control (100%)” value [2] was 143% and the “expression of EZH2 (RNA) as compared to control siRNA (100%)” value [3] was 50%. For the same substance, the “expression of EZH2 (RNA) as compared to control siRNA (100%)” value [4] was 13%.
